From patent US20250092345A1, “INTER ORGAN PLATFORM FOR MICROPHYSIOLOGICAL SYSTEM ON A CHIP” (THE TRUSTEES OF COLUMBIA UNIVERSITY IN THE CITY OF NEW YORK, priority 2020, published 2025)
Each block holds one compound with its values, some of them ahead of it.

Key:
[1] = FITC absorption and diffusive transport in the integrated platform; format: physicochemical
Experimental: Fluorescein isothiocyanate (FITC, 10 mM in DMSO; Sigma Aldrich) was circulated for the integrated platform to determine potential hydrophobic small molecule absorption, given its physical and chemical properties. FITC was added at a concentration of 10 µM to 8 mL of 1:1 bone tumor/cardiac mixed media and introduced into the platform. The control was the FITC-containing media in a standard 24-multiwell plate (Corning). Aliquots from the reservoir, bone tumor, and cardiac tissue chambers were taken at 12, 24, 48 and 72 hours and measured for fluorescent signal using a spectrophotometer (Biotek).
Measurements of FITC concentrations were used to estimate the spread of linsitinib within the platform via diffusive circulating transport. Four independent platforms were filled with 8 mL of 1:1 mixed media each, after which 10 µM of FITC was injected into the reservoir. The platforms were connected to the peristaltic pumps run at 100 rpm to generate physiologically relevant fluid flow rate and shear stress. Aliquots were taken from the reservoir, bone and cardiac chambers at 0, 2, 4, 6, and 12 hours post injection, and assayed for fluorescence signal on a spectrophotometer (Biotek).

cardiac muscle = experiment: Cardiac beat frequency after drug injection into the reservoir of the InterOrgan platform; format: cell-based, human; settings: 10 μM into reservoir at t=0; assessed at 24 and 72 hours
endothelial barrier = experiment: Endothelial barrier permeability under flow shear (ECs and supporting MSCs on mesh inserts); format: cell-based, human
[2] = test system: human engineered cardiac tissue; experiment: Validation of engineered cardiac tissue by drugs with known cardiac effects (beat frequency); format: cell-based; settings: doxorubicin 1 μM over 72 hours
Experimental: The cardiac tissue model was generated from iPS-derived cardiomyocytes and fibroblasts encapsulated in fibrin hydrogel, as in our previous studies. The tissue was formed between two elastic pillars causing cell elongation and alignment, and subjected to electrical stimulation to synchronously contract and work against the pillars.
Specifically, linsitinib was dissolved at a 10 mM concentration in DMSO (Corning) and mixed in with the respective cell medium at a […] concentration unless otherwise noted. Vehicle treatments involved just the addition of DMSO at identical volumes as a control. Tissues were randomly assigned to experimental groups. Medium was changed every day.
To measure the cardiac contractility online, we took contractility videos of the tissues that were analyzed using the native MATLAB code we previously developed. Tissue contractility was measured by tracking the change in tissue area as a function of time. […] Absolute differences in cell area from the baseline frame were then calculated to create a time course of cell area changes over time. The resulting time courses were analyzed using a native MATLAB (MATHWorks) automated peak finding algorithm to determine locations of maximum cell contractions in the time profiles. […] The rate of proarrhythmic events was calculated by the ratio of the number of proarrhythmic events over the total number of beats.

engineered skin tissues = experiment: Doxorubicin-induced toxicity: skin functional assays; format: cell-based, human; settings: 30 μM Dox, both Isolated and InterOrgan cultures
Experimental: Skin functional assays: For drug-induced toxicity studies, electrical current was run through the tissues by placing electrodes on either side of the skin tissue and the change in resistance was subsequently measured and read as a function of the barrier. All tissues were analyzed using the same electrode holder setup to standardize the positions of electrodes with respect to the tissue. To analyze the transport of molecules through the skin barrier, Fluorescein (FITC, ThermoFisher, D3306) powder was added to the epidermis of skin tissues. After 3 hrs, 100 μl of supernatant from the dermal region below the skin tissue was sampled and assayed on a plate reader (BioTex SynergyHTX).

[3] = test system: all tissues in the InterOrgan platform (heart, liver, bone, skin); experiment: Doxorubicin-induced toxicity: cell viability, glucose consumption, mitochondrial activity of engineered tissues; format: cell-based, human; settings: 30 μM Dox, 72 hours
Experimental: Metabolic Assays: Glucose, lactate, glutamate and glutamine were measured in parallel using the bioluminescent Glucose-Glo™ (Promega, cat. no. J6021), Lactate-Glo™ (Promega, cat. No. J5021), Glutamine/Glutamate-Glo™ (Promega, cat. no. J8021) and Glutamate-Glo™ (Promega, cat. no. J7021) assays according to the manufacturer's protocols.

miRNAs in heart tissues = format: cell-based, human
Text: We used the GeneChip™ miRNA 4.0 Array (ThermoFisher) to measure differential expression of miRNAs in heart tissues following Dox treatment.
Differential expressions of all other miRNAs were highly significant in the InterOrgan platform, based on Normalized Enrichment Scores (NES), showing activity consistent with published clinical results for 20 out of the 22 miRNAs (FIGS. 14A-14F).
miRNA was isolated using miRNeasy Mini Kit from (Qiagen, 217004). Samples were shipped on dry ice to Advanced BioMedical Laboratories and assayed using the miRNA 4.0 Genechip Array (ThermoFisher). Results were analyzed using the TAC 4.0 software (ThermoFisher). Additional Ingenuity Pathway Analysis was performed using the methodology described above.
To assess the activity of miRNAs, gene set enrichment analysis (GSEA) was performed of their targets, as determined by MultiMiR (release 3.11) and RBio-mirGS (update 0.2.12) biocoductor packages (in R) for genes that were differentially expressed after Dox treatment. Since miRNAs generally repress their targets, the sign of the normalized enrichment score was reversed to correctly report their change in activity. For instance, a positive target enrichment for miR-1273a's targets was reported as a negative NES (NES=−21.31) because it is consistent with its downregulation. […]

Compound: Fluorescein isothiocyanate [FITC]
absorption by the platform ([1]; 10 μM circulated for 72 hours, compared to multi-well plates): without any measurable absorption
time to equilibrium across both models ([1]; 10 μM injected into reservoir): approximately 6 hours
time to uniform concentration in all areas of the platform ([1]; 10 μM injected into reservoir): ≤ 12 h

Compound: CN(CCOc1ccc(NS(C)(=O)=O)cc1)CCc1ccc(NS(C)(=O)=O)cc1 [dofetilide]
beat rate of cardiac muscle (cardiac muscle): decreased

Compound: thrombin
barrier permeability in response to thrombin (endothelial barrier): physiologic increase in barrier permeability

miR-1273a fold change (FC) (miRNAs in heart tissues): −30.6
Compound: COc1cccc2c1C(=O)c1c(O)c3c(c(O)c1C2=O)C[C@@](O)(C(=O)CO)C[C@@H]3O[C@H]1C[C@H](N)[C@H](O)[C@H](C)O1 [doxorubicin]
beat frequency [2]: initially increased, and then decreased following prolonged exposure
diffusional permeability of skin (engineered skin tissues): increased
electrical resistance of skin (engineered skin tissues): decreased
cell viability [3]: significantly decreased
glucose consumption [3]: significantly decreased
mitochondrial activity [3]: significantly decreased

Compound: CNC[C@H](O)c1ccc(O)c(O)c1 [epinephrine]
beat rate of cardiac muscle (cardiac muscle): increased the beat rate in a time-dependent manner
